# What was measured:
# [1] = system: human foetal lung fibroblasts; conditions: cited from earlier work
# [2] = system: highly peritoneal metastatic pancreatic cancer cell line; conditions: cited from earlier work
# [3] = system: pancreatic cancer cell lines; conditions: cited from earlier work
# [4] = system: UUO mice; conditions: compared with LPA1 (-/-) mice; cited from earlier work
# [5] = system: mouse epithelial renal cell line, MCT; conditions: co-treatment with LPA, MCT cells; cited from earlier work
# [6] = biological target: T1, human LPA1 (Homo sapiens, UniProt Q92633); experiment: LPA1 functional antagonist assay (LPA-induced calcium flux); assay type: cell-based; conditions: CHO cells overexpressing human LPA1; inhibition of calcium flux induced by 10 nM LPA; read-out: hLPA1 IC50
# T1 construct: expressed in transfected cells; host or cells: Chinese hamster ovary (CHO) cells
# Method in brief: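 CHO cells overexpressing human LPA1, loaded with calcium dye, given compound (0.08 nM–5 μM final, 0.5% DMSO) for 20 min at room temperature in HBSS/HEPES with 0.1% fatty-acid-free BSA, then stimulated with 10 nM LPA. IC50 defined as 50% inhibition of LPA-induced calcium flux, from 4-parameter logistic fit.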
# [7] = system: nerve-injured mice; conditions: pretreatment; cited from earlier work
# T1 sequence (Q92633 whole entry): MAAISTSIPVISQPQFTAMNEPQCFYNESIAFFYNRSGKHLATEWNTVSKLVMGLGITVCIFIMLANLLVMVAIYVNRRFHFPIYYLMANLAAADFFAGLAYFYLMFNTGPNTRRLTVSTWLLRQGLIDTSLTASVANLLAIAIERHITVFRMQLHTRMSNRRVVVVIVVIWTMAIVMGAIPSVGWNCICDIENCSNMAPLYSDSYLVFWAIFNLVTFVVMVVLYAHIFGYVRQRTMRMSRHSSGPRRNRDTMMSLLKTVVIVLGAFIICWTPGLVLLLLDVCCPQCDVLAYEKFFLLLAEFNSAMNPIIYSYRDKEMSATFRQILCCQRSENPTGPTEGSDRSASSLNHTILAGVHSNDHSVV
IC50 [6] [nM],SMILES,other results
66,"Cc1nc(-c2onc(C)c2COC(=O)N(C)C2CCCC2)ccc1O[C@H]1CC[C@H](C(=O)O)C1 (racemic) [Example 77, (±)-trans-3-({6-[4-({[cyclopentyl(methyl)carbamoyl]oxy}methyl)-3-methyl-1,2-oxazol-5-yl]-2-methyl-pyridin-3-yl}oxy)cyclopentane-1-carboxylic acid]",
42.5,"Cc1nc(-c2nnn(C)c2COC(=O)N(C)CC2CCC2)ccc1O[C@H]1CC[C@H](C(=O)O)C1 (racemic) [Example 75, (±)-trans-3-({6-[5-({[(cyclobutyl-methyl)(methyl)carbamoyl]oxy}methyl)-1-methyl-1H-1,2,3-triazol-4-yl]-2-methylpyridin-3-yl}oxy)cyclo-pentane-1-carboxylic acid]",
171,"Cc1noc(-c2ccc(O[C@@H]3CC[C@@H](C(=O)O)C3)cc2)c1COC(=O)N(C)C1CCCC1 (racemic) [Example 3, (±)-Trans-3-(4-(4-(((cyclopentyl(methyl)carbamoyl)oxy)methyl)-3-methylisoxazol-5-yl)phenoxy)cyclopentane-1-carboxylic Acid]",
952,"CCCCN(C)C(=O)OCc1c(-c2ccc(O[C@H]3CC[C@H](CC(=O)O)C3)c(C)n2)nnn1C (single isomer, unassigned) [Example 5, (±)-Trans-2-(3-((6-(5-(((butyl(methyl)carbamoyl)oxy)methyl)-1-methyl-1H-1,2,3-triazol-4-yl)-2-methylpyridin-3-yl)oxy)cyclopentyl)acetic Acid]",
205,"Cc1noc(-c2ccc(O[C@H]3CC[C@@H](C(=O)O)C3)cc2)c1COC(=O)N(C)C1CCCC1 (racemic) [Example 71, (±)-cis-3-{4-[4-({[cyclopentyl(methyl)carbamoyl]oxy}methyl)-3-methyl-1,2-oxazol-5-yl]phenoxy}cyclopentane-1-carboxylic acid]",
770,"Cc1nc(-c2nnn(C)c2COC(=O)N2CCC3(CC3)C2)ccc1O[C@H]1CC[C@H](CC(=O)O)C1 (racemic) [Example 67, (±)-trans-2-[3-({6-[5-({5-azaspiro[2.4]heptane-5-carbonyloxy}methyl)-1-methyl-1H-1,2,3-triazol-4-yl]-2-methylpyridin-3-yl}oxy)cyclopentyl]acetic acid]",
25,"Cc1nc(-c2onc(C)c2COC(=O)N(C)C2CCCC2)ccc1O[C@H]1CC[C@@H](CC(=O)O)C1 (racemic) [Example 47, (±)-cis-2-[3-({6-[4-({[cyclopentyl(methyl)carbamoyl]oxy}methyl)-3-methyl-1,2-oxazol-5-yl]-2-methyl-pyridin-3-yl}oxy)cyclopentyl]acetic acid]",
13,"Cc1nc(-c2nnn(C)c2COC(=O)N(C)CC2CCC2)ccc1O[C@H]1CC[C@H](CC(=O)O)C1 (single isomer, unassigned) [Example 49, (±)-trans-2-[3-({6-[5-({[(cyclobutyl-methyl)(methyl)carbamoyl]oxy}methyl)-1-methyl-1H-1,2,3-triazol-4-yl]-2-methylpyridin-3-yl}oxy)cyclopentyl]acetic acid]",
9.7,"Cc1nc(-c2nnn(C)c2COC(=O)N(C)CC2CCC2)ccc1OC[C@H]1CC[C@@H](C(=O)O)C1 (single isomer, unassigned) [Example 32]",
670,"Cc1nc(-c2nnn(C)c2COC(=O)N(C)CC2CCC2)ccc1O[C@H]1CC[C@H](C(=O)O)C1 (single isomer, unassigned) [Example 79, Trans-(1,3)-3-({6-[5-({[(cyclobutyl-methyl) (methyl)carbamoyl]oxy}methyl)-1-methyl-1H-1,2,3-triazol-4-yl]-2-methylpyridin-3-yl}oxy)cyclo-pentane-1-carboxylic acid]",

# Second part, the compound before the results:
SMILES,IC50 [6] [nM],other results
Cc1noc(-c2ccc(CSCCC(=O)O)cc2)c1NC(=O)OC(C)c1ccccc1Cl (centres unmarked) [Ki16425],,chemotaxis of human foetal lung fibroblasts induced by BAL obtained from IPF patients [1]: blocked; LPA-induced and ascites-induced invasion activity [2]: blocked; in vitro migration in response to LPA and peritoneal fluid (ascites) from pancreatic cancer patients [3]: effectively blocked; development of renal fibrosis in UUO mice [4]: closely resembled the profile of LPA1 (−/−) mice; LPA-induced increase in expression of the profibrotic cytokine CTGF [5]: almost completely suppressed
"CCCCN(C)C(=O)OCc1c(-c2nc(C)c(O[C@H]3CC[C@H](CC(=O)O)C3)cc2F)nnn1C (racemic) [Example 68, (±)-trans-2-[3-({6-[5-({[butyl(methyl)carbamoyl]oxy}methyl)-1-methyl-1H-1,2,3-triazol-4-yl]-5-fluoro-2-methyl-pyridin-3-yl}oxy)cyclopentyl]acetic acid]",147,
"Cn1nnc(-c2ccc(OC[C@@H]3CC[C@H](C(=O)O)C3)cn2)c1CNc1nccc(-c2ccccn2)n1 (relative stereo) [Example 37, cis-3-(((6-(1-methyl-5-(((4-(pyridin-2-yl)pyrimidin-2-yl)amino)methyl)-1H-1,2,3-triazol-4-yl)pyridin-3-yl)oxy)methyl)cyclopentane-1-carboxylic acid]",172,
C[C@@H](N)[C@H]1CC[C@H](C(=O)Nc2ccncc2)CC1 [Example Y-27632],,allodynia and hyperalgesia [7]: completely abolished
"Cc1nc(-c2cnn(C)c2CNC(=O)OCc2ccccc2)cnc1O[C@H]1CC[C@H](C(=O)O)C1 (racemic) [Example 18, (±)-Trans-3-((5-(5-((((benzyloxy)carbonyl)amino)methyl)-1-methyl-1H-pyrazol-4-yl)-3-methylpyrazin-2-yl)oxy)cyclopentanecarboxylic Acid]",369,
"Cc1nc(-c2nnn(C)c2CNc2nccc(-c3ccccn3)n2)ccc1O[C@@H]1CC[C@@H](CC(=O)O)C1 (relative stereo) [Example 38, 2-(trans-3-((2-methyl-6-(1-methyl-5-(((4-(pyridin-2-yl)pyrimidin-2-yl)amino)methyl)-1H-1,2,3-triazol-4-yl)pyridin-3-yl)oxy)cyclopentyl)acetic acid]",579,

# Reference: US12209072B2, “Cyclopentyl acids as LPA antagonists” (BRISTOL-MYERS SQUIBB COMPANY, priority 2018, dated 2025)
